Literature values as cited in patent publication US10688070B2, “Serine glycerophospholipid preparation and method for treatment of seizures” (ENZYMOTEC LTD., priority 2013, dated 2020).

Tested on: Valproate adverse events (hepatotoxicity)
Conditions: in vivo

## CC/C=C\C/C=C\C/C=C\C/C=C\C/C=C\CCCC(=O)O [EPA, Eicosapentanoic acid]
  Effect on adverse events of Valproate: did not reveal the same effect
